# Laboratory results taken from patent US9254274B2, “Method of treating Tourette'S disorder with GABA-aminotransferase inactivators” (CATALYST PHARMACEUTICAL PARTNERS, priority 2012, dated 2016).
# Entries after “also recorded” stand apart in the source; their conditions may differ. Read-outs that look alike come from different tables or passages of the source.
# Key:
# [1] = molecular target: γ-aminobutyric acid aminotransferase (GABA-AT) (Sus scrofa, UniProt P80147); details: cited from earlier work
# Chain of γ-aminobutyric acid aminotransferase (GABA-AT) (P80147 29-500): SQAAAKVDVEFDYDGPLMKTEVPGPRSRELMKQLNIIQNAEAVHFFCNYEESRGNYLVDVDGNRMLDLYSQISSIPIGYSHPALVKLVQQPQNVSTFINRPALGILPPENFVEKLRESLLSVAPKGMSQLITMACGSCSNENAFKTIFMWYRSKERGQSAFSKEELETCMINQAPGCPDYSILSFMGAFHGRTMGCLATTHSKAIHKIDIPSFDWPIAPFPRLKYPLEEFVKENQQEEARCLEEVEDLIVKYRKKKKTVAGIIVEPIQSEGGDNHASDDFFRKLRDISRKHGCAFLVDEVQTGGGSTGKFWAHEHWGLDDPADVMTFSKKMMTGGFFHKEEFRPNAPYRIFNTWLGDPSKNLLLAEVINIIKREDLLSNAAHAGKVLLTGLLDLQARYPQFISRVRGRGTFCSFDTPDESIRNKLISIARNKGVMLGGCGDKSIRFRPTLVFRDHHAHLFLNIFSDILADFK
# [2] = tested on: brain GABA levels; details: human, single dose; cited from earlier work
# [3] = tested on: patient diagnosed with Tourettes's Disorder (TD); experiment: Clinical observations: single patient with Tourette's Disorder treated with vigabatrin; format: in vivo, human
# Excerpt: The following instruments will be used to assess diagnosis and symptom severity at baseline: • a) SCID-CT. A clinician administered, semi-structured diagnostic interview specifically developed for use in clinical trials with adults • b) Yale Global Tic Severity Scale (Y-GTSS) (Leckman et al, 1989). The primary outcome measure for tic assessment is this investigator administered Global Severity score (sum of Total Tic score and TD Impairment score) on the Y-GTSS. It includes measures of tic frequency and severity and is widely used in drug efficacy trials involving TD. • c) Yale-Brown Obsessive Compulsive Scale (Y-BOCS) (Goodman et al, 1989). The Y-BOCS is a primary outcome measure of OCD symptoms and is rated by a study investigator. • d) Clinical Global Impression for Tics (Tics-CGI) (Leckman et al, 1988), for ADHD (ADHD-CGI), and for OCD (OCD-CGI) (Guy et al, 1976). Rated by the investigator. Global Improvement (1=very much improved, to 7=very much worse) scales. At intake, only the severity can be rated. In subsequent assessments, both severity and improvement will be rated. A CGI improvement of 1 (very much) or 2 (much) improved is considered to be an acceptable response to acute treatment as is a clinical severity rating of ≦3. • e) DSM-IV-TR Global Assessment of Functioning Scale (GAF) (APA DSM-IV-TR, 2000). The investigator-rated GAF ranges from 1-100, with scores over 70 indicating normal adjustment, and below 60, clinically significant impairment. • f) Hamilton Depression Scale. A clinician-rated scale used as a screening and diagnostic tool and a measure of severity of […] in adults, which has been widely used in clinical trials of young adults with MDD. • g) Hamilton Anxiety Scale. A clinician-rated scale used as a screening and diagnostic tool and a measure of severity of […] in adults, which has been widely used in clinical trials of young adults with MDD. • h) Conners Adult ADHD Rating Scale (CAARS:SL) Systematic self-report of ADHD symptoms in adults. • i) Adverse Events Form (SMURF) is completed at every visit to document all adverse events that occur during the study. • j) Demographics: Demographics and family history information are collected systematically during the Screening/Baseline Phase. • k) Vital signs, Weight and Height (pulse, blood pressure, weight, and height) will be assessed at every visit. • l) Abnormal Involuntary Movement Scale (AIMS) An investigator rated scale of abnormal involuntary movements including tardive dyskinesia. • m) Opthalmological evaluation including visual fields testing Visit 2 (Treatment Week 0):
# A single patient diagnosed with Tourettes's Disorder (TD) was treated with vigabatrin for a period of about ten months. Subject is a person with a longstanding history of severe TD. Their course was characterized by typical attenuation of symptoms in late adolescence/early adulthood with an unusual, but not rare, acceleration of symptoms to lifetime peak severity in the last several years. This exacerbation occurred in temporal association with several significant life stressors. Marking the severity of their TD course was a history of fractured rib secondary to a truncal tic, inability to take public transportation, and inability to find steady work in their profession. […] They were on tetrabenazine at the time of referral to the study, but their response to this medication was limited by depressed mood symptoms and moderate fatigue.
# Baseline Yale Global Tic Severity Score (YGTSS) score indicated a total motor score of 22, and a total vocal score of 17, for a total tic score (TTS) of 39 and a tic-related impairment score of 40; global severity was 79. Global Assessment of Functioning (GAF) score at baseline was 50.
# [4] = molecular target: neuronal GABA transporter (Mus musculus, UniProt P31648); details: Ludwig et al 1999; cited from earlier work
smiles,measurement,setting,value
"N[C@@H]1C=C[C@H](C(=O)O)C1 [compound 1, (1R,4S)-4-amino-cyclopent-2-ene-1-carboxylic acid]",specificity constant as GABA-AT substrate relative to GABA,[1],almost five times greater than that of GABA
"C=CC(N)CCC(=O)O (stereo not drawn) [vigabatrin, γ-vinyl GABA]",brain GABA levels after administration,[2],remain substantially elevated for several days
same,"tic severity, overall clinical outcome",[3],clinically significant and meaningful improvement in their tic severity
same,YGTSS total tic score (TTS),"[3]; GVG 2 grams, week 2, baseline TTS 39",31
same,YGTSS total tic score (TTS),"[3]; GVG 3 grams, week 3, baseline TTS 39",27
same,YGTSS total tic score (TTS),"[3]; GVG 3 grams, week 4, baseline TTS 39",24
same,YGTSS total tic score (TTS),"[3]; GVG 3 grams, week 5, baseline TTS 39",21
same,YGTSS total tic score (TTS),"[3]; GVG 3 grams, week 7, baseline TTS 39",24
same,adverse effect,"[3]; GVG up to 3 grams, listed as GVG","minimal: tiredness and fatigue starting at 2 grams, which gradually attenuated; also recorded: mild and non-limiting adverse effect of fatigue"
same,eye exam,"[3]; at 7 weeks, overall, listed as GVG","normal, and showed no change from baseline; also recorded: unchanged and within normal limits"
same,YGTSS total tic score (TTS),"[3]; week 1, dose figure not printed ('gram'), baseline TTS 39",29
same,Global Assessment of Functioning (GAF) score,"[3]; week 7, baseline GAF 50",65
same,inhibition of GABA uptake,[4],inhibits GABA uptake
"C=C1C[C@H](C(=O)O)C[C@@H]1N [Compound 2, (1S,3S)-3-amino-4-methylenyl-1-cyclopentanoic acid]",GABA-AT inactivation,[1]; 2-mercaptoethanol added to the incubation mixture,no inactivation occurred
same,GABA-AT inactivation,[1]; without 2-mercaptoethanol,inactivation of GABA-AT was observed
